Results reported in US10168317B2, “Microfluidic device, system, and method for tracking single cells and single cell lineages” (CORNELL UNIVERSITY, priority 2012, dated 2019).
Values joined by “and” are separate entries in the source; they are usually repeats but may differ in a detail not shown here. Equal entries are not always repeated. “Also recorded” adds a separate entry of the source.

What was measured:
cells = conditions: straight confinement microchannels; cited from earlier work
cell invasion = conditions: together with protease inhibitors; cited from earlier work
MDA-MB-231 cells [1] = assay: Serial micropipette: pressure-driven transit across sequential subnucleus-scaled constrictions; type: cell-based, human; conditions: 10 μM taxol for 1 day
Description: MDA-MB-231 cells were obtained from the NCl Physical-Sciences and Oncology Center. They were cultured in Leibovitz L-15 media (Life Technologies) with 10% fetal bovine serum (Atlanta Biologicals) and 1% Penicillin-Streptavidin (Life Technologies) at 37° C. without CO2.
Devices were treated with 1% bovine serum albumin (BSA) (Sigma-Aldrich) in serum-free media (L-15) for several hours before experiments in order to prevent stiction. Additionally, cells used in experiments were resuspended in serum-free media. Cells were loaded into the inlet reservoir of the device and experiments were automatically conducted as described in the design and operations section of this paper. The device was placed and kept on a heating plate set at 37° C. Videos were recorded at 500 ms per frame under a microscope, which produced the data of the experiments. Experimental analysis and cell tracking were performed using ImageJ and custom MATLAB programs. For statistical analysis, one-way ANOVA was used to determine statistical significance. Error bars on data represent standard error of the mean (s.e.m.). For taxol experiments, cells were incubated in 10 μM taxol (Cytoskeleton, Inc.) for 1 day prior to experiments. For fluorescence experiments, NucBlue (a live nucleus counterstain that is formulated from Hoechst 33342) (Life Technologies) was used and cells were incubated in the dye in complete growth media for 15 minutes.
The device consists of parallel microchannels. Each channel contains a series of microconstrictions to serve as a serial micropipette capable of deforming objects multiple times via pressure driven flow. The larger region of the channel has a width of 15 μm, which is on the order of the size of a cell. The smaller constriction region is 3.3 μm, which is smaller than the cell nucleus, thus ensuring that the cell undergoes a substantial deformation that samples a key organelle in the cell that often limits cell squeezing in physiological landscapes due to its size and stiffness. […]

MDA-MB-231 cells [2] = assay: MUSIC device: cell migration in the larger channel LC (speed, mean-squared displacement); type: cell-based, human
Description: (§1) MDA-MB-231 cells were obtained from the NCl PS-OC and the ATCC. They were cultured in Leibovitz L-15 media (Life Technologies) supplemented with 10% fetal bovine serum (Atlanta Biologicals) and 1% Penicillin-Streptavidin (Life Technologies). K20T cells were obtained from the Giannakakou lab at Weill Cornell Medical College. They are a taxol-resistant derivative of MDA-MB-231 cells (K. M. Wiesen et al., Cancer Letters, 2007, 257, 227-235). They were cultured in L-15 media supplemented with 10% fetal bovine serum, 1% Penicillin-Streptavidin, and 15 nM paclitaxel (taxol) (Cytoskeleton, Inc). All cells were incubated at 37° C. without supplemented CO2.
Cells were loaded into the inlet reservoir regions at the ends of the microchannels and allowed to spontaneously migrate into the three-dimensionally confined channels. Devices with cells were incubated as in regular cell culture as described above. Timelapse experiments were performed once the cells were in the channels. For each experiment, devices were placed on top of a heating plate maintained at 37° C. Typical durations for timelapse experiments were around 1-2 days at a temporal resolution of 3.4 minutes. Cell tracking and measurements were performed by manual tracing via ImageJ. Data processing and analysis were performed via custom programs on MATLAB. The height of the microchannels used for all experiments with quantitative analysis was 10 μm. […] Standard DAPI staining was used for fluorescence imaging in FIG. 9. […]
To develop an assay that can directionally focus the cell invasion program for high throughput quantitative analysis, we designed and fabricated a microfluidic device that induces serial dimensional modulation on the cell and nucleus scale (FIG. 3). […] Because the migration vector points in one direction (x) and the primary induced region of change is in the orthogonal direction (y), high throughput quantitative analysis can now be accomplished in 1-D, thus increasing the feasibility of experiments and enabling predetermined axes of interest. […]

[3] = system: MDA-MB-231 metastatic breast cancer cells; assay: Cell morphology after taxol treatment in the microfluidic device; type: cell-based, human
Description: FIGS. 29A-29B illustrate cancer cells treated with the chemotherapeutic taxol in embodiments of a microfluidic device and system of the present invention. […] FIG. 29B: This more extended morphology from taxol-treated cells after failed mitosis resembles the morphology of K20T cells, which are the taxol-resistant variant of the MDA-MB-231 cells.
FIGS. 29A-29B show cancer cells treated with the chemotherapeutic taxol in embodiments of a microfluidic device and system of the present invention. […] They also lose the ability to divide properly, resulting in an extensive blebbing phase followed by cytoskeletal recovery. After failed mitosis and recovery, the cells take on a different, more extended morphology, typically with more edges and extensions. This new morphology resembles the taxol-resistant variant of these cells. […] For timelapse stacks, 34 minutes elapsed between each frame.

MDA-MB-231 cells [4] = assay: Single-cell lineage drug response in parallel microfluidic channels; type: cell-based, human; conditions: 1 nM Paclitaxel, constant treatment, day 2 and day 6, about one week
Description: FIG. 26 illustrates breast cancer cells treated with 1 nM Paclitaxel at day 2 (top) and day 6 (bottom) from initial treatment, as observed in one embodiment of a microfluidic device/microfluidic system of the present invention. […] The emergence of drug resistance can therefore be identified at the single-cell and single-cell lineage level, which can provide better biological resolution and can identify the onset of resistance more quickly especially if only a rare subpopulation of the bulk cells is resistant.
To move forward, we will expand these studies to distinguish the difference in drug responsivity between individual cell lineages enabled by our cell isolation technique previously described, and we will extend the time-scale of these experiments to accommodate for the emergence of drug resistance.

MDA-MB-231 cells [5] = assay: MUSIC device: cell invasion across subnucleus barriers (SNI), timelapse; type: cell-based, human; conditions: for ability to invade across subnucleus barriers / tight spaces: taxol (Paclitaxel)-treated MDA-MB-231 cells
Description: as §1
Cells were loaded into the inlet reservoir regions at the ends of the microchannels and allowed to spontaneously migrate into the three-dimensionally confined channels. Devices with cells were incubated as in regular cell culture as described above. Timelapse experiments were performed once the cells were in the channels. For each experiment, devices were placed on top of a heating plate maintained at 37° C. Typical durations for timelapse experiments were around 1-2 days at a temporal resolution of 3.4 minutes. Cell tracking and measurements were performed by manual tracing via ImageJ. Data processing and analysis were performed via custom programs on MATLAB. The height of the microchannels used for all experiments with quantitative analysis was 10 μm. […] For statistical analysis, the Chi-squared test was used for probability measurements, and ANOVA statistics were used for all other measurements, unless otherwise specified. Error bars are standard error of the mean (s.e.m.). Standard DAPI staining was used for fluorescence imaging in FIG. 9. For cell viability in these devices, we found in a typical timelapse experiment of ˜23 hrs that less than 10% (5 out of 54) of the cells died while occupying the experimental field of view.
To develop an assay that can directionally focus the cell invasion program for high throughput quantitative analysis, we designed and fabricated a microfluidic device that induces serial dimensional modulation on the cell and nucleus scale (FIG. 3). We refer to this herein as a MUlti-staged Serial Invasion Channels (MUSIC) device. […] Then we incorporate a spatially tapering interface that connects the confinement channel to another even smaller channel (referred to as the subnucleus barrier (SNB)) with width smaller than the cell nucleus, which is one of the largest and stiffest organelles in the cell (P. Friedl et al., Current Opinion in Cell Biology, 2011, 23, 55-64). […] This device design in essence directs and reduces the 3-D invasion program into a 2-component process—1) the cell migrates in the x-direction while 2) necessarily altering its y-dimensions. Because the migration vector points in one direction (x) and the primary induced region of change is in the orthogonal direction (y), high throughput quantitative analysis can now be accomplished in 1-D, thus increasing the feasibility of experiments and enabling predetermined axes of interest. Furthermore, repeating patterns of the subnucleus barrier are placed along the length of the microchannel, enabling serial effects and multiple sampling of individual cells, therefore providing a way to elucidate the plasticity of mechanisms of invasion for each cell. In our experiments, we consider both 1) cell invasion in only the larger confinement channel region (referred to as LCI) and 2) invasion from the larger channel across the subnucleus barrier (referred to as SNI). Our device design incorporates two different lengths for the SNB—10 μm (SNB10) and 60 μm (SNB60), which are shorter and longer than a typical MDA-MB-231 cell, respectively.
To understand higher order effects of cell invasion, we first identified the nonlinearity in the cell displacement function during SNI. Then we segmented the process into 4 distinct phases and measured the time constants of each phase. […]

COC(=O)Nc1nc2ccc(C(=O)c3cccs3)cc2[nH]1 [Nocodazole]
effect on migration rates in confinement (cells): migration rates are affected

C[C@@H](N)[C@H]1CC[C@H](C(=O)Nc2ccncc2)CC1 [Y27632]
effect on cell invasion in combination with protease inhibitors (cell invasion): synergistic effects in preventing cell invasion

CC(=O)O[C@H]1C(=O)[C@@]2(C)[C@H]([C@H](OC(=O)c3ccccc3)[C@]3(O)C[C@H](OC(=O)[C@H](O)[C@@H](NC(=O)c4ccccc4)c4ccccc4)C(C)=C1C3(C)C)[C@]1(OC(C)=O)CO[C@@H]1C[C@@H]2O [taxol, paclitaxel]
transit time across the first constriction (MDA-MB-231 cells [1]; 10 μm-long constriction, about 400 pa, n=26): 550 ± 109 s
transit times across subsequent constrictions, taxol treated vs untreated cells (MDA-MB-231 cells [1]; constrictions 2 to 5): transit times collapse between the two cell groups
cell length in the microchannel (cell size) (MDA-MB-231 cells [1]; n=26): 31±2 μm
factor of difference in average cell speed between treated and untreated cells (MDA-MB-231 cells [2]; larger channel region LC, 16 μM taxol): ~2
power-law exponent of mean-squared displacement vs. time (MSD ∝ t^x) (MDA-MB-231 cells [2]; taxol-treated MDA-MB-231 cells in larger channel LC, n=10 cells, non-linear least squares fit): 1 and 1.014
average speed in the larger channel LC (MDA-MB-231 cells [2]; taxol-treated MDA-MB-231 cells, 16 μM (printed 1604), 3.4 minute time interval, n=10): 0.53 μm/min
cell morphology after failed mitosis ([3]; taxol-treated cells after failed mitosis and recovery): recover a more extended morphology
cell morphology after treatment ([3]; taxol-treated cells before failed mitosis): less extended, more rounded morphology
effect on migration rates in confinement (cells): migration rates are affected
viability and proliferation of single-cell lineages under drug (MDA-MB-231 cells [4]): many cells underwent apoptosis but a select lineage continues to propagate; also recorded: many other cells in other channels underwent apoptosis after failed cell division
total invasion time across subnucleus barrier SNB10 (MDA-MB-231 cells [5]; 16 µM): ≥ 22 h
factor of difference in total SNI time, treated vs untreated cells (MDA-MB-231 cells [5]; barrier 10 μm long, 16 μM taxol): > 20
ability to invade across subnucleus barriers / tight spaces (MDA-MB-231 cells [5]): reduced ability in invading across tight spaces
ability to invade across subnucleus barriers / tight spaces (MDA-MB-231 cells [5]; listed as Paclitaxel): can no longer invade
total invasion time across subnucleus barrier SNB10 (MDA-MB-231 cells [5]; taxol-treated MDA-MB-231 cells, 16 μM taxol (printed 1604), 10 μm long barrier, lower-bound measurement, many cells not permeated by end of experiment): > 20 h
total invasion time across subnucleus barrier SNB60 (MDA-MB-231 cells [5]; taxol-treated MDA-MB-231 cells, 16 μM taxol (printed 1604), 60 μm long barrier, lower-bound measurement): ≥ 22 h
